Reference: patent US20170216213A1, “DIRECTLY COMPRESSIBLE POLYVINYL ALCOHOLS” (Merck Patent GmbH, priority 2014, published 2017)

Assay: Ascorbic acid in-vitro release test (USP Apparatus 2, paddle)
Format: physicochemical
Conditions: from PVA/MCC matrix tablets (samples 1 and 2)
Procedure: 9. Ascorbic acid release test: The ascorbic acid-containing compressed tablets (from the compressions with a pressing force of 20 kN) are measured in a SOTAX (Allschwil, Switzerland) in-vitro release apparatus using the “Apparatus 2 (Paddle Apparatus)” described in USP 36 under <711> and under the conditions described therein for “Extended-release dosage forms” (USP=United States Pharmacopoeia). The sampling is carried out automatically via a hose pump system with subsequent measurement in an 8453 spectrometer (Agilent Technologies, USA) and a flow cell.
The averaged values are obtained from the release tests of in each case 6 ascorbic acid-containing tablets pressed with a pressing force of 20 kN.
Measurement Apparatuses and Measurement Parameters:
1. —Sotax AT7s release apparatus fitted with Apparatus 2 (Paddle Apparatus in accordance with USP 36) • Temperature: 37° C.+/−0.5° C. • Paddle speed: 100 rpm • Volume of release medium per measurement vessel: 900 ml • Tablet weight: 500 mg • Total run time of the measurement: 720 min. (with sampling after 15, 30, 45, 60, 120, 180, 240, 300, 360, 420, 480, 540, 600, 660, 720 min.)
2. —Hose pump for sampling: Sotax CY 7-50 (SOTAX, Switzerland)
3. —8453 spectrometer (Agilent Technologies, USA) • Measurement at 244 nm in a 2 mm flow measurement cell • Evaluation via Excel • Medium preparation: Dosa Prep X8 (DOSATEC GmbH, Germany) […]

SMILES: O=C1O[C@H]([C@@H](O)CO)C(O)=C1O [ascorbic acid, L(+)-ascorbic acid]
- Duration of retarded in-vitro release: over several hours
